Patent US8343923B2, “Use of notch signaling regulators for modulating osteogenesis” (Washington University, priority 2007, dated 2013)

Legend:
Assay type in all cases: cell-based, mouse
[1] = test system: wild type BMSCs; experiment: AP quantitative assay for high-density wild type BMSCs cultures in osteogenic medium; settings: wild type BMSCs at higher density under osteogenic conditions, with versus without DAPT; p<0.05
Description: FIG. 8G is representative of “type II” CFU-Fs stained for AP. FIG. 8H illustrates an AP quantitative assay for high-density wild type BMSCs cultures in osteogenic medium with or without DAPT. (*: p<0.05).
Cell cultures. Bone marrow harvests and high-density cultures were done as described in the art. For CFU-F assays, single-cell suspension of nucleated bone marrow cells were seeded at 3×10^6 on T25 flasks and cultured in DMEM (Invitrogen) containing 20% lot-selected FBS (Hyclone) and 1-Thioglycerol (Sigma) for 11-14 days without change of medium. For CFU-F assays, colonies with more than 50 small, round or spindle-shaped cells in direct contact with each other were scored as “type I” CFU-Fs. Clusters with more than 100 cells including large cells with multiple processes were counted as “type II” CFU-Fs. Differentiation of BMSCs was induced by either osteogenic (50 μg/ml ascorbic acid, 50 mM β-glycerol-2-phosphate) or adipogenic (0.5 μMIBMX, 60 μM indomethacine, 0.5 μM hydrocortisone) DMEM containing 10% FBS (Atlas). Primary osteoblasts were isolated from long bones by incubating cleaned small bone chips to allow cells to migrate onto culture dishes. NICD was detected by Western analyses using a specific antibody (Cell Signaling).
It was also assessed whether Notch signaling could directly control bone marrow mesenchymal progenitors and their differentiation. […]

[2] = test system: "type II" CFU-Fs from wild type BMSCs; experiment: AP staining immediately following CFU-F assays; settings: assayed directly for AP activity without further culture in osteogenic conditions; DAPT-treated samples
Description: FIG. 8G is representative of “type II” CFU-Fs stained for AP. FIG. 8H illustrates an AP quantitative assay for high-density wild type BMSCs cultures in osteogenic medium with or without DAPT. (*: p<0.05). Cell cultures. Bone marrow harvests and high-density cultures were done as described in the art. For CFU-F assays, single-cell suspension of nucleated bone marrow cells were seeded at 3×10^6 on T25 flasks and cultured in DMEM (Invitrogen) containing 20% lot-selected FBS (Hyclone) and 1-Thioglycerol (Sigma) for 11-14 days without change of medium. For CFU-F assays, colonies with more than 50 small, round or spindle-shaped cells in direct contact with each other were scored as “type I” CFU-Fs. Clusters with more than 100 cells including large cells with multiple processes were counted as “type II” CFU-Fs. Differentiation of BMSCs was induced by either osteogenic (50 μg/ml ascorbic acid, 50 mM β-glycerol-2-phosphate) or adipogenic (0.5 μMIBMX, 60 μM indomethacine, 0.5 μM hydrocortisone) DMEM containing 10% FBS (Atlas). Primary osteoblasts were isolated from long bones by incubating cleaned small bone chips to allow cells to migrate onto culture dishes. NICD was detected by Western analyses using a specific antibody (Cell Signaling). It was also assessed whether Notch signaling could directly control bone marrow mesenchymal progenitors and their differentiation. […]

[3] = test system: bone marrow mesenchymal progenitors (CFU-Fs) in wild type BMSCs; experiment: CFU-F assay of wild type BMSCs in the presence or absence of DAPT
Description: FIG. 8B depicts AP staining after 8 days in osteogenic medium following CFU-F assays. FIG. 8C illustrates AP quantitative assay for high-density BMSCs cultures in osteogenic medium. FIG. 8D is phase-contrast pictures of high-density BMSCs cultured in adipogenic medium. Note the lipid droplets in wild type cells. […] The arrow denotes a typical “type I” CFU-F. Cell cultures. Bone marrow harvests and high-density cultures were done as described in the art. For CFU-F assays, single-cell suspension of nucleated bone marrow cells were seeded at 3×10^6 on T25 flasks and cultured in DMEM (Invitrogen) containing 20% lot-selected FBS (Hyclone) and 1-Thioglycerol (Sigma) for 11-14 days without change of medium. For CFU-F assays, colonies with more than 50 small, round or spindle-shaped cells in direct contact with each other were scored as “type I” CFU-Fs. Clusters with more than 100 cells including large cells with multiple processes were counted as “type II” CFU-Fs. Differentiation of BMSCs was induced by either osteogenic (50 μg/ml ascorbic acid, 50 mM β-glycerol-2-phosphate) or adipogenic (0.5 μMIBMX, 60 μM indomethacine, 0.5 μM hydrocortisone) DMEM containing 10% FBS (Atlas). […] NICD was detected by Western analyses using a specific antibody (Cell Signaling). […] It was also assessed whether Notch signaling could directly control bone marrow mesenchymal progenitors and their differentiation. […]

With `C[C@H](NC(=O)Cc1cc(F)cc(F)c1)C(=O)N[C@H](C(=O)OC(C)(C)C)c1ccccc1` [DAPT, N—[N-(3,5-Difluorophenacetyl)-L-alanyl]-S-phenylglycine t-butyl ester] the AP expression [1] was “significantly increased”, the “AP staining of "type II" CFU-Fs” value [2] was “nearly all “type II” CFU-Fs from the DAPT-treated samples stained strongly positive” and the “number of "type II" CFU-Fs” value ([3]; 1 μM DAPT, number not altered versus untreated) was ~20 per 106 marrow cells. For the same compound, the “effect on "type I" CFU-Fs” value ([3]; low-density culture, 1 μM DAPT (FIG. 8 legend)) was “completely eliminated”.
